Laboratory results published in the Kinase Knowledgebase extract (Sharma et al. 2016).

Tests used:
[1] = biological target: EGFR (human) (UniProt P00533); details: caski
[2] = biological target: EGFR (human) (UniProt P00533); details: sf268
[3] = biological target: EGFR (human) (UniProt P00533); details: siha
[4] = biological target: EGFR (human) (UniProt P00533); details: ccrf-cem leukemia cell
[5] = biological target: EGFR (human) (UniProt P00533); details: km-12
[6] = biological target: EGFR (human) (UniProt P00533); details: ovcar-4
[7] = biological target: EGFR (human) (UniProt P00533); details: m14
[8] = biological target: EGFR (human) (UniProt P00533); details: 786-0
[9] = biological target: EGFR (human) (UniProt P00533); details: k562
[10] = biological target: EGFR (human) (UniProt P00533); details: snb-75
[11] = biological target: EGFR (human) (UniProt P00533); details: mg-mid
[12] = biological target: EGFR (human) (UniProt P00533); details: ovcar-8
[13] = biological target: EGFR (human) (UniProt P00533); details: sw 620
[14] = biological target: EGFR (human) (UniProt P00533); details: hct 116
[15] = biological target: EGFR (human) (UniProt P00533); details: pc-3
[16] = biological target: EGFR (human) (UniProt P00533); details: hcc2998
[17] = biological target: EGFR (human) (UniProt P00533); details: rxf-393
[18] = biological target: EGFR (human) (UniProt P00533); details: sk-ov-3
[19] = biological target: EGFR (human) (UniProt P00533); details: bt-549
[20] = biological target: EGFR (human) (UniProt P00533); details: mda-mb-435
[21] = biological target: EGFR (human) (UniProt P00533); details: uacc62
[22] = biological target: EGFR (human) (UniProt P00533); details: sk-mel-2
[23] = biological target: EGFR (human) (UniProt P00533); details: snb-19
[24] = biological target: EGFR (human) (UniProt P00533); details: h226
[25] = biological target: EGFR (human) (UniProt P00533); details: mcf7/adr-res
[26] = biological target: EGFR (human) (UniProt P00533); details: h522
[27] = biological target: EGFR (human) (UniProt P00533); details: a431
[28] = biological target: EGFR (human) (UniProt P00533); details: achn
[29] = biological target: EGFR (human) (UniProt P00533); details: lox-imvi
[30] = biological target: EGFR (human) (UniProt P00533); details: t-47d
[31] = biological target: EGFR (human) (UniProt P00533); details: ht-29
[32] = biological target: EGFR (human) (UniProt P00533); details: HN5
[33] = biological target: EGFR (human) (UniProt P00533); details: rpmi8226
[34] = biological target: EGFR (human) (UniProt P00533); details: sr
[35] = biological target: EGFR (human) (UniProt P00533); details: mda-mb-231/atcc
[36] = biological target: EGFR (human) (UniProt P00533); details: tk-10
[37] = biological target: EGFR (human) (UniProt P00533); details: sn12c
[38] = biological target: EGFR (human) (UniProt P00533); details: hop-62
[39] = biological target: EGFR (human) (UniProt P00533); details: malme-3m
[40] = biological target: EGFR (human) (UniProt P00533); details: hct-15
[41] = biological target: EGFR (human) (UniProt P00533); details: hn5
[42] = biological target: EGFR (human) (UniProt P00533); details: ekvx
[43] = biological target: EGFR (human) (UniProt P00533); details: ovcar-3
[44] = biological target: EGFR (human) (UniProt P00533); details: uo-31
[45] = biological target: EGFR (human) (UniProt P00533); details: mcf-7
[46] = biological target: EGFR (human) (UniProt P00533); details: h7 578t
[47] = biological target: EGFR (human) (UniProt P00533); details: ovcar-5
[48] = biological target: EGFR (human) (UniProt P00533); details: sk-mel-5
[49] = biological target: EGFR (human) (UniProt P00533); details: mda-n
[50] = biological target: EGFR (human) (UniProt P00533); details: h322m

Chain of EGFR (human) (P00533 whole entry, looked up): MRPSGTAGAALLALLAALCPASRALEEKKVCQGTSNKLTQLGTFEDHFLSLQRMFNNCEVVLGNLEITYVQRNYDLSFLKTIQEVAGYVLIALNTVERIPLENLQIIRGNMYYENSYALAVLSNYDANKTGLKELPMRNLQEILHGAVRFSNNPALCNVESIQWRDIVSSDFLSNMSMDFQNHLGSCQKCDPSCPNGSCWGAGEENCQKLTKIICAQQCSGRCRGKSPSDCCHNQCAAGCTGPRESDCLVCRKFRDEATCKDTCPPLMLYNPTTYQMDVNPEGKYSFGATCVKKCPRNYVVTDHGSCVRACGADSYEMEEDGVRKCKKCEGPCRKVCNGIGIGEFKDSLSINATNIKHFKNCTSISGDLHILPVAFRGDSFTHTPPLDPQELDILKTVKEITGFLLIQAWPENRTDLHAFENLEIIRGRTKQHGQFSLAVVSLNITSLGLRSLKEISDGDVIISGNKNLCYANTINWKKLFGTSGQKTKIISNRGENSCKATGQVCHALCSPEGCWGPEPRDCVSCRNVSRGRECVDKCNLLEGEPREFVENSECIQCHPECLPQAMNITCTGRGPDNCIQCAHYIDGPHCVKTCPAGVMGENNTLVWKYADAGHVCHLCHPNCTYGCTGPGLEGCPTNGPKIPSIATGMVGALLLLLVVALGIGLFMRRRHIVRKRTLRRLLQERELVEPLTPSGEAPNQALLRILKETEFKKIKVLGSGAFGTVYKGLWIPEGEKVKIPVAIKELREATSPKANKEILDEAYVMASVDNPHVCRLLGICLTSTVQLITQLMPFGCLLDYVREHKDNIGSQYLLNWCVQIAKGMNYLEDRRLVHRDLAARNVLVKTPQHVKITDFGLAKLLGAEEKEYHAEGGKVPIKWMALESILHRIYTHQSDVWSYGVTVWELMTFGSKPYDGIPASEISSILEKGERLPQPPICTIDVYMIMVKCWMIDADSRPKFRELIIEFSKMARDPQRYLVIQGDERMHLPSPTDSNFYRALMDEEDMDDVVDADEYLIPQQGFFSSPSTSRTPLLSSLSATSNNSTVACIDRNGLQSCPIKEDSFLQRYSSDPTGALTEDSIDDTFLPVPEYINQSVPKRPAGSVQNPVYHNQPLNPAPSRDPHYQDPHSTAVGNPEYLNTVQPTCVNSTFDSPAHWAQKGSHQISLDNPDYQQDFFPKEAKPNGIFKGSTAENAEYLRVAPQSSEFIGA

N#CC(C#N)=C(N)/C(C#N)=C/c1ccc([N+](=O)[O-])s1
Details	GI50 [µM]	IC50 [µM]
[1]	–	9.24
[2]	22.4	–
[3]	–	13.4
[4]	4.17	–
[5]	18.2	–
[6]	15.5	–
[7]	12	–
[8]	19.9	–
[9]	3.89	–
[10]	14.8	–
[11]	13.2	–
[12]	12.6	–
[13]	3.23	–
[14]	3.39	–
[15]	19.9	–
[16]	15.8	–
[17]	9.33	–
[18]	17.8	–
[19]	12.9	–
[20]	12.3	–
[21]	79.4	–
[22]	19.5	–
[23]	17.8	–
[24]	17.8	–
[25]	21.4	–
[26]	11	–
[27]	–	6.07
[28]	19.9	–
[29]	11.5	–
[30]	6.91	–
[31]	15.8	–
[32]	–	12.2
[33]	5.01	–
[34]	12	–
[35]	17	–
[36]	18.2	–
[37]	13.5	–
[38]	19.5	–
[39]	22.9	–
[40]	17.8	–
[41]	–	8.4
[42]	19.5	–
[43]	15.5	–
[44]	18.2	–
[45]	10.5	–
[46]	18.6	–
[47]	26.9	–
[48]	7.58	–
[49]	4.57	–
[50]	20.9	–

N#CC(C#N)=Cc1csc([N+](=O)[O-])c1
Details	GI50 [µM]	IC50 [µM]
[1]	–	40
[2]	38.9	–
[3]	–	44.6
[4]	23.4	–
[5]	35.5	–
[6]	28.8	–
[7]	17.8	–
[8]	33.9	–
[9]	27.5	–
[10]	25.1	–
[11]	30.2	–
[12]	19.5	–
[13]	43.6	–
[14]	16.2	–
[15]	38	–
[16]	26.9	–
[17]	17.4	–
[18]	59	–
[19]	27.5	–
[20]	20.9	–
[21]	17.8	–
[22]	26.9	–
[23]	60.2	–
[24]	> 100	–
[25]	37.1	–
[26]	15.1	–
[27]	–	28.4
[28]	19.5	–
[29]	30.9	–
[30]	22.9	–
[31]	21.9	–
[32]	–	23
[33]	31.6	–
[34]	30.2	–
[35]	26.3	–
[36]	45.7	–
[37]	34.7	–
[38]	25.7	–
[39]	33.9	–
[40]	33.9	–
[41]	–	40.4
[42]	> 100	–
[43]	21.9	–
[44]	17.8	–
[45]	41.7	–
[46]	28.2	–
[47]	59	–
[48]	15.8	–
[49]	19.9	–
[50]	74.1	–

CCOC(=O)/C(C#N)=C/c1ccc([N+](=O)[O-])s1
Details	GI50 [µM]	IC50 [µM]
[1]	–	6.94
[2]	6.16	–
[3]	–	4.59
[4]	1.55	–
[5]	6.92	–
[6]	1.7	–
[7]	1.74	–
[8]	10.7	–
[9]	1.2	–
[10]	7.58	–
[11]	3.47	–
[12]	1.99	–
[13]	1.48	–
[14]	1.48	–
[15]	2.95	–
[16]	3.47	–
[17]	1.7	–
[18]	15.5	–
[19]	0.871	–
[20]	2.34	–
[21]	1.35	–
[22]	3.31	–
[23]	14.8	–
[24]	16.2	–
[25]	3.47	–
[26]	1.69	–
[27]	–	4.6
[28]	1.9	–
[29]	1.86	–
[30]	2.75	–
[31]	2.04	–
[32]	–	34
[33]	2.34	–
[34]	3.02	–
[35]	1.86	–
[36]	3.47	–
[37]	5.75	–
[38]	14.8	–
[39]	2.24	–
[40]	2.19	–
[41]	–	5.4
[42]	15.5	–
[43]	2.04	–
[44]	1.86	–
[45]	3.09	–
[46]	3.47	–
[47]	1.95	–
[48]	1.2	–
[49]	2.19	–
[50]	17	–
